From PubChem BioAssay (NCI)
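Each compound was tested at five concentrations against cells in 96-well plates for 48 hours. Here, GI50 denotes the concentration required for 50% inhibition of growth. TGI: total growth inhibition.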

Experiments:
Assay in all cases: inhibition of tumour cell growth, NCI panel, 48 h
BT-549 breast = tested on: BT-549 breast
PC-3 prostate = tested on: PC-3 prostate
OVCAR-4 ovarian = tested on: OVCAR-4 ovarian
MDA-MB-231 breast = tested on: MDA-MB-231 breast
T-47D breast = tested on: T-47D breast
IGROV1 ovarian = tested on: IGROV1 ovarian
MALME-3M melanoma = tested on: MALME-3M melanoma
MDA-MB-435 = tested on: MDA-MB-435
HS 578T breast = tested on: HS 578T breast
SK-MEL-5 melanoma = tested on: SK-MEL-5 melanoma
OVCAR-3 ovarian = tested on: OVCAR-3 ovarian
SN12C renal = tested on: SN12C renal
RXF 393 renal = tested on: RXF 393 renal
SK-OV-3 ovarian = tested on: SK-OV-3 ovarian
M14 melanoma = tested on: M14 melanoma
NCI/ADR-RES ovarian = tested on: NCI/ADR-RES ovarian
OVCAR-8 ovarian = tested on: OVCAR-8 ovarian
SNB-19 CNS = tested on: SNB-19 CNS
HOP-62 NSCLC = tested on: HOP-62 NSCLC
ACHN renal = tested on: ACHN renal
SF-539 CNS = tested on: SF-539 CNS
786-0 renal = tested on: 786-0 renal
COLO 205 colon = tested on: COLO 205 colon
HCC-2998 colon = tested on: HCC-2998 colon
A498 renal = tested on: A498 renal
SF-268 CNS = tested on: SF-268 CNS
HOP-92 NSCLC = tested on: HOP-92 NSCLC
NCI-H522 lung = tested on: NCI-H522 lung
TK-10 renal = tested on: TK-10 renal
EKVX NSCLC = tested on: EKVX NSCLC
CCRF-CEM leukemia = tested on: CCRF-CEM leukemia
SK-MEL-2 melanoma = tested on: SK-MEL-2 melanoma
HL-60(TB) leukemia = tested on: HL-60(TB) leukemia
U251 CNS = tested on: U251 CNS
MDA-MB-468 breast = tested on: MDA-MB-468 breast
OVCAR-5 ovarian = tested on: OVCAR-5 ovarian
UACC-257 melanoma = tested on: UACC-257 melanoma
NCI-H23 lung = tested on: NCI-H23 lung
LOX IMVI melanoma = tested on: LOX IMVI melanoma
SF-295 CNS = tested on: SF-295 CNS
KM12 colon = tested on: KM12 colon
HCT-116 colon = tested on: HCT-116 colon
NCI-H460 lung = tested on: NCI-H460 lung
HCT-15 colon = tested on: HCT-15 colon
UACC-62 melanoma = tested on: UACC-62 melanoma
DU-145 prostate = tested on: DU-145 prostate
NCI-H226 lung = tested on: NCI-H226 lung
K-562 leukemia = tested on: K-562 leukemia
MCF7 breast = tested on: MCF7 breast
RPMI-8226 leukemia = tested on: RPMI-8226 leukemia
SW-620 colon = tested on: SW-620 colon
A549 NSCLC = tested on: A549 NSCLC
SNB-75 CNS = tested on: SNB-75 CNS

Structure (SMILES): ClC(Cn1ncc2c(Nc3cccc(Br)c3)nc(SCCN3CCOCC3)nc21)c1ccc(Br)cc1 (stereo unspecified)
- GI50 (BT-549 breast): 11.7 µM
- TGI (BT-549 breast): 27.9 µM
- GI50 (PC-3 prostate): 3.77 µM
- TGI (PC-3 prostate): > 100 µM
- GI50 (OVCAR-4 ovarian): 6.42 µM
- TGI (OVCAR-4 ovarian): > 100 µM
- GI50 (MDA-MB-231 breast): 2.25 µM
- TGI (MDA-MB-231 breast): 4.66 µM
- GI50 (T-47D breast): 3.47 µM
- TGI (T-47D breast): > 100 µM
- GI50 (IGROV1 ovarian): 8 µM
- TGI (IGROV1 ovarian): > 100 µM
- GI50 (MALME-3M melanoma): 1.81 µM
- TGI (MALME-3M melanoma): 3.53 µM
- GI50 (MDA-MB-435): 3.89 µM
- TGI (MDA-MB-435): 21.5 µM
- GI50 (HS 578T breast): 2.44 µM
- TGI (HS 578T breast): 7.88 µM
- GI50 (SK-MEL-5 melanoma): 2.07 µM
- TGI (SK-MEL-5 melanoma): 4.47 µM
- GI50 (OVCAR-3 ovarian): 10.3 µM
- TGI (OVCAR-3 ovarian): 60 µM
- GI50 (SN12C renal): 6.47 µM
- TGI (SN12C renal): > 100 µM
- GI50 (RXF 393 renal): 1.69 µM
- TGI (RXF 393 renal): 4.49 µM
- GI50 (SK-OV-3 ovarian): 6.46 µM
- TGI (SK-OV-3 ovarian): > 100 µM
- GI50 (M14 melanoma): 2.5 µM
- TGI (M14 melanoma): 8.72 µM
- GI50 (NCI/ADR-RES ovarian): 3.89 µM
- TGI (NCI/ADR-RES ovarian): 97.5 µM
- GI50 (OVCAR-8 ovarian): 6.5 µM
- TGI (OVCAR-8 ovarian): > 100 µM
- GI50 (SNB-19 CNS): 5.14 µM
- TGI (SNB-19 CNS): > 100 µM
- GI50 (HOP-62 NSCLC): 3.71 µM
- TGI (HOP-62 NSCLC): 22.4 µM
- GI50 (ACHN renal): 4.38 µM
- TGI (ACHN renal): > 100 µM
- GI50 (SF-539 CNS): 1.79 µM
- TGI (SF-539 CNS): 3.48 µM
- GI50 (786-0 renal): 1.76 µM
- TGI (786-0 renal): 3.35 µM
- GI50 (COLO 205 colon): 1.98 µM
- TGI (COLO 205 colon): 4.48 µM
- GI50 (HCC-2998 colon): 3.8 µM
- TGI (HCC-2998 colon): 60 µM
- GI50 (A498 renal): 6.37 µM
- TGI (A498 renal): 35.2 µM
- GI50 (SF-268 CNS): 6.94 µM
- TGI (SF-268 CNS): > 100 µM
- GI50 (HOP-92 NSCLC): 3.5 µM
- TGI (HOP-92 NSCLC): 23.9 µM
- GI50 (NCI-H522 lung): 2.87 µM
- TGI (NCI-H522 lung): 9.33 µM
- GI50 (TK-10 renal): 13.6 µM
- TGI (TK-10 renal): > 100 µM
- GI50 (EKVX NSCLC): 5.01 µM
- TGI (EKVX NSCLC): > 100 µM
- GI50 (CCRF-CEM leukemia): 2.17 µM
- TGI (CCRF-CEM leukemia): 10.1 µM
- GI50 (SK-MEL-2 melanoma): 4.62 µM
- TGI (SK-MEL-2 melanoma): 24.5 µM
- GI50 (HL-60(TB) leukemia): 3.03 µM
- TGI (HL-60(TB) leukemia): > 100 µM
- GI50 (U251 CNS): 3.34 µM
- TGI (U251 CNS): 41.3 µM
- GI50 (MDA-MB-468 breast): 2.52 µM
- TGI (MDA-MB-468 breast): 6.89 µM
- GI50 (OVCAR-5 ovarian): 5.24 µM
- TGI (OVCAR-5 ovarian): 30.3 µM
- GI50 (UACC-257 melanoma): 2.82 µM
- TGI (UACC-257 melanoma): 9.84 µM
- GI50 (NCI-H23 lung): 3.46 µM
- TGI (NCI-H23 lung): 18.6 µM
- GI50 (LOX IMVI melanoma): 1.74 µM
- TGI (LOX IMVI melanoma): 3.24 µM
- GI50 (SF-295 CNS): 1.78 µM
- TGI (SF-295 CNS): 3.57 µM
- GI50 (KM12 colon): 2.72 µM
- TGI (KM12 colon): 7.36 µM
- GI50 (HCT-116 colon): 3.09 µM
- TGI (HCT-116 colon): > 100 µM
- GI50 (NCI-H460 lung): 3.55 µM
- TGI (NCI-H460 lung): > 100 µM
- GI50 (HCT-15 colon): 1.65 µM
- TGI (HCT-15 colon): 3.8 µM
- GI50 (UACC-62 melanoma): 2.23 µM
- TGI (UACC-62 melanoma): 4.75 µM
- GI50 (DU-145 prostate): 15.1 µM
- TGI (DU-145 prostate): > 100 µM
- GI50 (NCI-H226 lung): 9.32 µM
- TGI (NCI-H226 lung): 71.6 µM
- GI50 (K-562 leukemia): 2.84 µM
- TGI (K-562 leukemia): 26.2 µM
- GI50 (MCF7 breast): 2.77 µM
- TGI (MCF7 breast): 24.6 µM
- GI50 (RPMI-8226 leukemia): 2.03 µM
- TGI (RPMI-8226 leukemia): 4.59 µM
- GI50 (SW-620 colon): 2.76 µM
- TGI (SW-620 colon): 12.6 µM
- GI50 (A549 NSCLC): 4.93 µM
- TGI (A549 NSCLC): > 100 µM
- GI50 (SNB-75 CNS): 2.57 µM
- TGI (SNB-75 CNS): 24.3 µM
